Measured values published in patent US12281304B2, “Compositions and methods for treating and preventing muscular disorders and dystrophies, steroid side effects, and inflammation” (Children's National Medical Center, priority 2018, dated 2025).

Tested on: miRNAs in diaphragm muscle of mdx mice
Assay: TaqMan low-density array (TLDA) miRNA profiling of diaphragm, discovery set (prophylactic mdx trial)
Format: in vivo, mouse
From the text: Archival muscle samples (diaphragm) from two separate preclinical studies were obtained, with each trial showing a significant benefit from both prednisolone and vamorolone drug treatments (23). Prednisolone was used because it is the active form of prednisone, the current DMD standard of care. The first, “discovery set” of diaphragm muscles was from a prophylactic trial design where 2-week old (postnatal day 15) mdx or wild type control mice received oral dosing for 6 weeks with vehicle (cherry syrup), prednisolone (5 mg/kg), or vamorolone (15 mg/kg) as previously reported (23). The second, “validation set” of diaphragm muscles was from an extended trial in older mice where mdx or wild type mice were subjected to treadmill running to unmask mild phenotypes. Mice in this validation set were treated with either vehicle, prednisolone (5 mg/kg) or vamorolone (45 mg/kg) for four months beginning at two months of age (23). At the endpoint of each trial, diaphragm muscles were harvested and frozen in liquid nitrogen-cooled isopentane.
We extracted total RNA from 5 diaphragm muscles per treatment group in the discovery set of samples from 8-week old mice. RNA was extracted using a modified TRIzol protocol with isopropanol precipitation at −20° C. overnight. This RNA was reverse transcribed to cDNA using a High Capacity cDNA Reverse Transcription Kit with RNase Inhibitor (ThermoFisher; Carlsbad, Calif.), with miRNA-specific Megaplex RT Primers, Rodent Pools Set version 3.0 (ThermoFisher; Carlsbad, Calif.). Levels of each of the miRNAs were profiled in the discovery set using TAQMAN Array Rodent MiRNA A+B Cards Set v3.0 (ThermoFisher; Carlsbad, Calif.).
In the discovery set experiments, levels of each miRNA were quantified in TaqMan low-density arrays using ThermoFisher Cloud software with the Relative Quantification Application (ThermoFisher; Carlsbad, Calif.) tool. Data was analyzed by ANOVA with post-hoc comparison of each group to the mdx vehicle-treated group. […] A P-value of P≤0.05 was set as the significance threshold, without adjustment for multiple comparisons. To reduce false-positive discovery in this setting, an evidence-based approach was used to identify efficacy associated miRNAs where 1) results from the multiple groups were cross-referenced, and 2) all candidate miRNAs identified in this discovery set were then assayed in a separate validation set of mice. For the validation set experiments, levels of each individual miRNA were assayed in samples from a second, independent preclinical trial in adult mdx mice. Data from individual TaqMan Assays was quantified using QuantStudio Real-Time PCR version 1.3 software (Applied Biosystems; Foster City, Calif.). The levels of all miRNAs were normalized to the geometric mean of multiple control genes (60, 70). Comparison of groups was made by ANOVA with Holm-Sidak post-hoc test comparing each group to mdx vehicle.
To visualize behavior of miRNAs within individual mice for each group, heat map images were generated. Heat maps were generated using Rq values of TLDA array data exported from the Relative Quantification Application of the ThermoFisher Cloud software (ThermoFisher; Carlsbad, Calif.) tool. Heat maps of miRNA expression were produced using Hierarchical Clustering Explorer Version 3.5 (at www.cs.umd.edu/hcil/multi-cluster/) produced by the Human Computer Interaction Laboratory (University of Maryland; College Park, Md.).
To examine miRNA expression TaqMan low density qPCR array cards were used to profile approximately 750 miRNAs within diaphragm muscle from a discovery set of mice. Samples for this experiment came from a trial that utilized a prophylactic approach (23). Briefly, mdx mice undergo a stage of peak severity characterized by widespread inflammation and necrosis from approximately 3-8 weeks of age, followed by a recovery stage where mice show milder phenotypes (25). […]

[1] = discovery set diaphragm muscle, mdx mice, Pred 5 mg/kg, Vam 15 mg/kg
[2] = mdx diaphragm, vs untreated mdx, Pred 5 mg/kg, Vam 15 mg/kg

`C[C@@H]1C[C@H]2[C@@H]3CCC4=CC(=O)C=C[C@]4(C)C3=CC[C@]2(C)[C@@]1(O)C(=O)CO` [vamorolone] was tested, and the “miRNA 142-3p % expression in comparison to mdx vehicle” value [1] was 65 ± 20 %, the “miRNA 142-5p % expression in comparison to mdx vehicle” value [1] was 61 ± 23 % and the “miRNA 146a % expression in comparison to mdx vehicle” value [1] was 52 ± 12 %. For the same compound, the “miRNA 301a % expression in comparison to mdx vehicle” value [1] was 77 ± 12 %, the “miRNA 324-3p % expression in comparison to mdx vehicle” value [1] was 75 ± 13 % and the “miRNA 455-3p % expression in comparison to mdx vehicle” value [1] was 61 ± 14 %. For the same compound, the “miRNA 455-5p % expression in comparison to mdx vehicle” value [1] was 64 ± 15 %, the “miRNA 497 % expression in comparison to mdx vehicle” value [1] was 65 ± 11 % and the “miRNA 652 % expression in comparison to mdx vehicle” value [1] was 64 ± 18 %. For the same compound, the “number of miRNAs significantly changed in dystrophic muscle” value (mdx diaphragm, 8-week-old mice, oral dosing 6 weeks, prednisolone 5 mg/kg, vamorolone 15 mg/kg, versus untreated mdx, P≤0.05) was 41, the “number of miRNAs significantly increased by treatment” value (mdx diaphragm, discovery set, prednisolone 5 mg/kg, vamorolone 15 mg/kg, P≤0.05) was “none of the miRNAs queried in the TLDA cards were significantly increased” and the “expression of the nine efficacy-associated miRNAs elevated in dystrophy” value (mdx diaphragm, discovery set, versus mdx vehicle) was “returned towards healthy wild type levels”. For the same compound, the “Rq hsa-let-7i#-002172” value [2] was 0.939, the “Rq hsa-miR-30e-3p-000422” value [2] was 0.849 and the “Rq hsa-miR-22#-002301” value [2] was 0.78. For the same compound, the “Rq hsa-miR-140-3p-002234” value [2] was 0.903, the “Rq hsa-miR-143-000466” value [2] was 1.29 and the “Rq hsa-miR-154#-000478” value [2] was 0.689. For the same compound, the “Rq hsa-miR-190b-002263” value [2] was 0.822, the “Rq hsa-miR-200c-000505” value [2] was 0.453 and the “Rq hsa-miR-206-000510” value [2] was 0.983. For the same compound, the “Rq hsa-miR-213-000516” value [2] was 0.839, the “Rq hsa-miR-214#-002293” value [2] was 0.889 and the “Rq hsa-miR-214-000517” value [2] was 0.994. The “Rq hsa-miR-376a#-001287” value [2] was 0.845, the “Rq hsa-miR-455-001280” value [2] was 0.637 and the “Rq hsa-miR-744#-002325” value [2] was 0.816. For the same compound, the “Rq mmu-let-7e-002406” value [2] was 0.665, the “Rq mmu-let-7a-000377” value [2] was 0.667 and the “Rq mmu-let-7b-000378” value [2] was 0.754. For the same compound, the “Rq mmu-let-7c-1#-002479” value [2] was 1.038, the “Rq mmu-let-7c-000379” value [2] was 0.691 and the “Rq mmu-let-7i-002221” value [2] was 0.777. The “Rq mmu-let-7d#-001178” value [2] was 0.61, the “Rq mmu-let-7d-002283” value [2] was 0.789 and the “Rq mmu-miR-1-002222” value [2] was 0.897. For the same compound, the “Rq mmu-miR-15a-000389” value [2] was 0.719, the “Rq mmu-miR-16-000391” value [2] was 0.781 and the “Rq mmu-miR-18a-002422” value [2] was 1.288. The “Rq mmu-miR-19a-000395” value [2] was 0.886, the “Rq mmu-miR-20a#-002491” value [2] was 0.825 and the “Rq mmu-miR-21#-002493” value [2] was 0.647. The “Rq mmu-miR-21-000397” value [2] was 0.677, the “Rq mmu-miR-23b-000400” value [2] was 0.675 and the “Rq mmu-miR-25-000403” value [2] was 0.867. For the same compound, the “Rq mmu-miR-26a-000405” value [2] was 0.766, the “Rq mmu-miR-27b-000409” value [2] was 0.82 and the “Rq mmu-miR-28-000411” value [2] was 0.842. For the same compound, the “Rq mmu-miR-30e-002223” value [2] was 0.847, the “Rq mmu-miR-30a-000417” value [2] was 0.834 and the “Rq mmu-miR-30b-000602” value [2] was 0.855. The “Rq mmu-miR-30c-000419” value [2] was 0.818, the “Rq mmu-miR-31#-002495” value [2] was 0.821 and the “Rq mmu-miR-31-000185” value [2] was 1.032. The “Rq mmu-miR-34a-000426” value [2] was 0.789, the “Rq mmu-miR-34b-3p-002618” value [2] was 0.798 and the “Rq mmu-miR-34c#-002584” value [2] was 0.748. For the same compound, the “Rq mmu-miR-34c-000428” value [2] was 0.811, the “Rq mmu-miR-99b-000436” value [2] was 0.913 and the “Rq mmu-miR-100-000437” value [2] was 0.721. The “Rq mmu-miR-103-000439” value [2] was 0.628, the “Rq mmu-miR-122-002245” value [2] was 0.072 and the “Rq mmu-miR-125a-3p-002199” value [2] was 0.828. The “Rq mmu-miR-125b#-002508” value [2] was 0.803, the “Rq mmu-miR-125b-3p-002378” value [2] was 0.866 and the “Rq mmu-miR-125b-5p-000449” value [2] was 0.682. The “Rq mmu-miR-126-3p-002228” value [2] was 0.809, the “Rq mmu-miR-126-5p-000451” value [2] was 0.812 and the “Rq mmu-miR-127-000452” value [2] was 1.107. The “Rq mmu-miR-128a-002216” value [2] was 0.847, the “Rq mmu-miR-130a-000454” value [2] was 0.717 and the “Rq mmu-miR-130b#-002460” value [2] was 1.164. The “Rq mmu-miR-130b-000456” value [2] was 0.88, the “Rq mmu-miR-133a-002246” value [2] was 0.996 and the “Rq mmu-miR-134-001186” value [2] was 1.353. The “Rq mmu-miR-136-002511” value [2] was 0.942, the “Rq mmu-miR-138#-002554” value [2] was 0.384 and the “Rq mmu-miR-140-001187” value [2] was 0.818. For the same compound, the “Rq mmu-miR-142-3p-000464” value [2] was 0.626, the “Rq mmu-miR-142-5p-002248” value [2] was 0.576 and the “Rq mmu-miR-143-002249” value [2] was 0.716. The “Rq mmu-miR-145-002278” value [2] was 0.722, the “Rq mmu-miR-146a-000468” value [2] was 0.513 and the “Rq mmu-miR-146b#-002453” value [2] was 0.275. The “Rq mmu-miR-146b-001097” value [2] was 0.645, the “Rq mmu-miR-148a-000470” value [2] was 0.496 and the “Rq mmu-miR-148b-000471” value [2] was 0.568. The “Rq mmu-miR-150#-002570” value [2] was 0.293, the “Rq mmu-miR-150-000473” value [2] was 0.692 and the “Rq mmu-miR-151-3p-001190” value [2] was 0.971. The “Rq mmu-miR-152-000475” value [2] was 0.785, the “Rq mmu-miR-154-000477” value [2] was 0.898 and the “Rq mmu-miR-155-002571” value [2] was 0.876. The “Rq mmu-miR-181a-000480” value [2] was 0.773, the “Rq mmu-miR-181c-000482” value [2] was 0.71 and the “Rq mmu-miR-185-002271” value [2] was 0.886. For the same compound, the “Rq mmu-miR-186-002285” value [2] was 0.994, the “Rq mmu-miR-191-002299” value [2] was 0.815 and the “Rq mmu-miR-193#-002577” value [2] was 0.682. The “Rq mmu-miR-195-000494” value [2] was 0.669, the “Rq mmu-miR-199a-3p-002304” value [2] was 0.722 and the “Rq mmu-miR-199b-001131” value [2] was 0.667. The “Rq mmu-miR-200c-002300” value [2] was 0.577, the “Rq mmu-miR-203-000507” value [2] was 0.521 and the “Rq mmu-miR-204-000508” value [2] was 0.627. The “Rq mmu-miR-210-000512” value [2] was 0.746 and the “Rq mmu-miR-214-002306” value [2] was 0.842.
